Like-named read-outs stand apart in the source and are kept apart here.
Experiments:
zebrafish embryos = test: Zebrafish response assay (embryonic touch response/swim behaviour, complete anaesthesia); format: in vivo; conditions: Danio rerio, 1.5 h; complete anaesthesia (scale 1) in 50% of embryos, 90 min at 28° C., 54 hpf AB wild type embryos
Excerpt: Briefly, the ZEA assay involved applying essential oils, fractions or individual compounds to developmentally staged zebrafish embryos followed by monitoring of embryonic touch response/swim behaviour and evaluation of the dose response relationship for each substance. Using a four point scale to describe the embryonic behaviours (Table 4), initial analysis focused on monitoring and recording these changes and evaluating the level of bioactivity. […] (optimal temperature for embryonic growth) in the diluted compound. • The four point scale (Table 4) was used to evaluate the touch response and swim behaviour for each embryo in all wells. • The effectiveness of the compound was based on its ability to generate complete anesthesia (scale: 1) in 50% of the embryos at a given concentration (EC50). • The EC50 values were calculated using GraphPad Prism® software to analyze the log (dose) response curves. The results are shown in Table 3, and in FIG. 3 as a dose response curve of zebrafish embryo assay, a percentage response versus percentage of compound present.

[1] = system: voltage-gated Na+ channels; test: Sodium (Na+) channel analysis in rat DRG neurons using whole cell patch-clamp; format: cell-based
Description: Isolated DRG neurons were suspended in primary neuron basal media and placed on glass coverslips for incubation in humidified atmosphere of 5% CO2 at 37° C. Coverslip carrying cells was transferred to the bath of an inverted microscope (Zeiss), continuously perfused with oxygenated artificial cerebro-spinal fluid (ACSF) containing (in mM) 124 NaCl, 2.5 KCl, 2 CaCl2, 1 MgSO4, 25 NaHCO3, 1 NaH2PO4, and 10 glucose, at a rate of 2-3 ml/min. Recording of whole-cell membrane currents were made at room temperature. Recording pipette (4-6 MO) was filled with internal solution containing (in mM) 145 K-gluconate, 5 NaCl, 1 MgCl2, 0.2 EGTA, 10 HEPES, 2 Mg-ATP, 0.1 Na-GTP, and 10 phosphocreatine. To isolate Na^+ currents, DRG neurons were superfused with ACSF containing tetraethylammonium chloride (TEA) 5 mM, cesium chloride (CsCl) 100 μM and cadmium chloride (CdCl) 1 mM, to block potassium and calcium currents. OBM compounds were freshly dissolved in ASCF containing TEA, CsCl and CdCl, prior application via the bath.
For recording Na^+ currents, cells were held at −60 mV before applying a conditioning hyperpolarizing step (50 ms) to −90 mv to reactivate the voltage-gated Na^+ channels. The conditioning pulse was followed by depolarizing (150 ms) test pulses to 50 mV in 10 mV increments. Na^+ currents were recorded in absence, after 3 min in presence of the drugs and after a recovery time of 3 min.

TRPV1 = target: T1, TRPV1 (Homo sapiens, UniProt Q8NER1); test: TRPV1 assay, calcium imaging; format: cell-based; conditions: Ca2+ imaging after 1 μM capsaicin, HEK-TRPV cells
T1 construct: expressed in transfected cells; host or cells: HEK-TRPV cells
Description: Briefly, cells were seeded into poly-L-lysine-coated, glass-bottom, 24-well plates (1×10^5 cells/well) and incubated overnight under standard culture conditions to achieve the desired confluency. Culture media was removed and cells were washed twice with HBS prior to incubation for 15 to 60 min at 37° C. with a labelling mixture comprised of Fura-2-AM and pluronic acid in HBS. Data collection occurred over an eight minute period and followed the same general sequence. Following loading, cells were stimulated by addition of 1 μM of capsaicin agonist for 2 min, after which a concentration series of the test sample (e.g. (0.5, 5, 10, 50 μg/ml) was added and imaging continued for an additional 5 min. Capsazepine (20 μM) served as a known reference antagonist, while cells that were mock-treated or received vehicle (e.g., DMSO) alone served as negative controls. For imaging, plates were placed on the stage of an inverted epifluorescence microscope (e.g., Axiovert 200, Zeiss) equipped with a CCD digital camera (e.g., Axiocam MRm, Zeiss). For each well of the plate, a sequence of image pairs (excitation at 340 nm and 380 nm) were collected to capture intracellular calcium flux. Image sequences were analyzed in ImageJ (NIH) and average pixel intensities calculated for six representative cells in each test condition to achieve mean fluorescence.

[2] = Na+ currents, rat DRG neurons, whole-cell patch clamp, 3 min in presence of drug, read-out: IC50

T1 sequence (Q8NER1 whole entry, species assumed): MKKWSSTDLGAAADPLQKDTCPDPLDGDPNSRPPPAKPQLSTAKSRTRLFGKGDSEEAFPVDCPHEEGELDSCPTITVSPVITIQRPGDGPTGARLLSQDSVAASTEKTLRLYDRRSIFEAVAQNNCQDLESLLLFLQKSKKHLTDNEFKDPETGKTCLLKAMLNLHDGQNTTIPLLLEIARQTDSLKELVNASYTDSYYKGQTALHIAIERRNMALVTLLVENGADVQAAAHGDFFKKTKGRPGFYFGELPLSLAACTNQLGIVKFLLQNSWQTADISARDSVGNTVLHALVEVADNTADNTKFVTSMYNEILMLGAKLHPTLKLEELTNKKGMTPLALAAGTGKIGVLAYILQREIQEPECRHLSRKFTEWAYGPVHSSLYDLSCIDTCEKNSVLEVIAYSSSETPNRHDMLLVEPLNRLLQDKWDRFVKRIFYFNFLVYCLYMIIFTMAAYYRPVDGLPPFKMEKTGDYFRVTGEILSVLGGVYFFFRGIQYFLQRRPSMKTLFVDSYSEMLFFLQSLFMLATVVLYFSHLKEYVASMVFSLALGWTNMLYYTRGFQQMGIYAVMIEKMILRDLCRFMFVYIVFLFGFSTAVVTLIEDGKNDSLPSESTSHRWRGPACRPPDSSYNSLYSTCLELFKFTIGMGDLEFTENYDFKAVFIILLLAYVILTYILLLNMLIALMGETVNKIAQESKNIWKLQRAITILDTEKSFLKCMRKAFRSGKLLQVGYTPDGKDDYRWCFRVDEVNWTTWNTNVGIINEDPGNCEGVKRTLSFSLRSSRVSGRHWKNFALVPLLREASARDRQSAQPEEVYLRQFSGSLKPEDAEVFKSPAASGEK

Row | Structure (SMILES) | EC50 (zebrafish embryos) [µM] | IC50 [1, 2] [µM] | IC50 ([1]; percentage sodium current versus concentration, FIG. 1, read-out: Calculated IC50) [µM] | IC50 (TRPV1)
1 | CC(C)=CCCC1(C)CC1COCc1ccccc1Cl (centres unmarked) [OBM 2995, 1-chloro-2-(((2-methyl-2-(4-methylpent-3-en-1-yl)cyclopropyl)methoxy)methyl)benzene] | > 450 | < 10000 |  | 
2 | CC(C)=CCCC1(C)CC1COCc1ccccc1Br (centres unmarked) [OBM 2994, 1-bromo-2-(((2-methyl-2-(4-methylpent-3-en-1-yl)cyclopropyl)methoxy)methyl)benzene] | > 450 | < 10000 |  | 
3 | COCC1CC1(C)CCC=C(C)C (centres unmarked) [OBM 2989, 2-(methoxymethyl)-1-methyl-1-(4-methylpent-3-en-1-yl)cyclopropane] | > 450 | 5000 to 10000 |  | 
4 | CC(C)=CCCC1(C)CC1CO (centres unmarked) [OBM 2979, (2-methyl-2-(4-methylpent-3-en-1-yl)cyclopropyl)methanol] | 1 to 100 | 100 to 1000 | 700 | agonist
5 | CC(C)=CCCC1(c2ccccc2)CC1CO (centres unmarked) [OBM 2999, (2-(4-methylpent-3-en-1-yl)-2-phenylcyclopropyl) methanol] | 100 to 450 | 1000 to 5000 |  | 
6 | CC(C)=CCCC1(C)CC1COCc1ccccc1 (centres unmarked) [OBM 2993] | > 450 | < 10000 |  | 

Reference: patent US20140357725A1, “TERPENE ANALOGUES AND USES THEREOF FOR TREATING NEUROLOGICAL CONDITIONS” (NEUROQUEST INC., priority 2011, published 2014)
